Values of other authors as cited in patent publication US20080255200A1, “SUBSTITUTED BENZIMIDAZOLES” (AUSPEX PHARMACEUTICALS, INC., priority 2007, published 2008).

Target: gastric H^+, K^+-ATPase (Homo sapiens, UniProt P20648)
Settings: intragastric pH over 4, orally administered

Chain of gastric H^+, K^+-ATPase (P20648 whole entry): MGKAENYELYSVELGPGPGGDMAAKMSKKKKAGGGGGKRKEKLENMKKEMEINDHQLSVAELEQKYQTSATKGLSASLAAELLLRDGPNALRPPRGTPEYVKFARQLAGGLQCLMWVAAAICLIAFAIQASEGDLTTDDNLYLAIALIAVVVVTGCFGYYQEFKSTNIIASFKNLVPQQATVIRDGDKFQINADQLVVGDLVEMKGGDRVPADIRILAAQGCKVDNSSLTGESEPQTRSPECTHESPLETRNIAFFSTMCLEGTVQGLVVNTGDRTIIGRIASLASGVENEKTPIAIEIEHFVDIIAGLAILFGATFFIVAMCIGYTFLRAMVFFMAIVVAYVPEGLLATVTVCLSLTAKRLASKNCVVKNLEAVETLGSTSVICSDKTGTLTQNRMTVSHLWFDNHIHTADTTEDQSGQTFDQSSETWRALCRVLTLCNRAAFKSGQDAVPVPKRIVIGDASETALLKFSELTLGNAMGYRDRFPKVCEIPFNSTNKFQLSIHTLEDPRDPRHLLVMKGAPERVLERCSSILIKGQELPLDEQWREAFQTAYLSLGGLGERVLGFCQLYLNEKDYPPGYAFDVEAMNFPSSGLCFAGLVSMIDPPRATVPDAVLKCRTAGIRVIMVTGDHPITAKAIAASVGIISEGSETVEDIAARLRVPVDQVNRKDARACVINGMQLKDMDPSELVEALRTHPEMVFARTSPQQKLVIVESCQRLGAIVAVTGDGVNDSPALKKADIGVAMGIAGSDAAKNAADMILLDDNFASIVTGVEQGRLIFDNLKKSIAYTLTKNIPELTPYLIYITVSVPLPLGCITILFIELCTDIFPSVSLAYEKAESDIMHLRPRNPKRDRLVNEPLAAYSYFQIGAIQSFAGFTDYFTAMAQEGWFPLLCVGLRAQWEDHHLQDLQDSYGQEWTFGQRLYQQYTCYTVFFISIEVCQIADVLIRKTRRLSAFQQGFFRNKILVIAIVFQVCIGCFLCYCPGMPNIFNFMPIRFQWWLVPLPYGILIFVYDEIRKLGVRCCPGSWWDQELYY
Chain of gastric H^+, K^+-ATPase (P51164 whole entry partner): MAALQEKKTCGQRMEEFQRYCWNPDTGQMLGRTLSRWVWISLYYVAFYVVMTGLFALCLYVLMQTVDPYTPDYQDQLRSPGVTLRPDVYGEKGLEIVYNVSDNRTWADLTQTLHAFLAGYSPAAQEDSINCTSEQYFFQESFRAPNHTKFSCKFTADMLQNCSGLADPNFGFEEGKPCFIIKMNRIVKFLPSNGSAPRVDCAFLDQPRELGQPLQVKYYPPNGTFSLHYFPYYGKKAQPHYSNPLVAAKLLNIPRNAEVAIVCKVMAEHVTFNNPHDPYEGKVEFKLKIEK

- average time intragastric pH is increased to over 4: 20.5 hours
Compound: COc1ccnc(C[S+]([O-])c2nc3cc(-n4cccc4)ccc3[nH]2)c1C (stereo not shown) [Ilaprazole, 2-(4-methoxy-3-methyl-pyridin-2-ylmethanesulfinyl)-5-pyrrol-1-yl-1H-benzoimidazole]
